Data from patent US10294246B2, “Substituted boronic acids and boronate esters as immunoproteasome inhibitors” (MERCK PATENT GMBH, priority 2014, dated 2019).

Key:
[1] = molecular target: human immunoproteasome (LMP7) (Homo sapiens (Human), UniProt P28062); experiment: Determination of LMP7 activity (fluorescence intensity assay, Suc-LLVY-AMC); type: biochemical; conditions: for Selectivity LMP7 vs Beta5: LMP7 versus Beta5; for IC50: purified human immunoproteasome 0.25 nM, Suc-LLVY-AMC 40 μM
Description: Determination of LMP7 Activity:
Measurement of LMP7 inhibition is performed in 384 well format based on fluorescence intensity assay.
(§1) Purified human immunoproteasome (0.25 nM) and serial diluted compounds in DMSO (range of concentrations from 30 μM to […]) or controls are incubated for 20 minutes at 25° C. in assay buffer containing 50 mM Tris pH 7.4, 0.03% SDS, 1 mM EDTA and 1% DMSO. The reaction is initiated by the addition of the fluorogenic peptide substrate, Suc-LLVY-AMC (Bachem 1-1395), at a concentration of 40 μM. After 60 minutes of incubation at 37° C., fluorescence intensity is measured at λex=350 nm and λem=450 nm with a fluorescence reader (Perkin Elmer Envision reader or equivalent).

[2] = molecular target: human constitutive proteasome (Beta5) (Homo sapiens (Human), UniProt P28074); experiment: Determination of Beta5 activity (fluorescence intensity assay, Suc-LLVY-AMC); type: biochemical; conditions: purified human constitutive proteasome 1.25 nM, Suc-LLVY-AMC 40 μM
Description: Determination of Beta5 Activity:
Measurement of Beta5 inhibition is performed in 384 well format based on fluorescence intensity assay.
as §1, with “constitutive proteasome (1.25” for “immunoproteasome (0.25”

Row | Compound | Selectivity LMP7 vs Beta5 [1] | IC50 [1] [nM] | IC50 [2] [nM]
1 | COc1ccccc1CC(=O)N[C@@H](Cc1coc2ccccc12)B(O)O [Compound No. 27, [(1R)-2-(benzofuran-3-yl)-1-[[2-(2-methoxyphenyl)acetyl]amino]ethyl]-boronic acid] | ++++ (70 ≤ Selectivity < 100) | < 50 | 50 to 500
2 | O=C(Cc1ccccc1OC(F)(F)F)N[C@@H](Cc1coc2ccccc12)B(O)O [Compound No. 28, [(1R)-2-(benzofuran-3-yl)-1-[[2-[2-(trifluoromethoxy)phenyl]acetyl]-amino]ethyl]boronic acid] | +++++ (Selectivity ≥ 100) | < 50 | 500 to 5000
3 | Cc1ccc(C[C@H](NC(=O)Cc2ccccc2)B(O)O)c(C)c1 [Compound No. 29, [(1R)-2-(2,4-dimethylphenyl)-1-[(2-phenylacetyl)amino]ethyl]boronic acid] | +++++ (Selectivity ≥ 100) | 50 to 500 | > 5000
4 | COCc1ccc(CC(=O)N[C@@H](Cc2coc3ccccc23)B(O)O)cc1 [Compound No. 30, [(1R)-2-(benzofuran-3-yl)-1-[[2-[4-(methoxymethyl)phenyl]acetyl]-amino]ethyl]boronic acid] | ++++ (70 ≤ Selectivity < 100) | < 50 | 50 to 500
5 | O=C(Cc1cccc(OCCCO)c1)N[C@@H](Cc1coc2ccccc12)B(O)O [Compound No. 31, [(1R)-2-(benzofuran-3-yl)-1-[[2-[3-(3-hydroxypropoxy)phenyl]acetyl]-amino]ethyl]boronic acid] | ++++ (70 ≤ Selectivity < 100) | < 50 | 50 to 500
6 | CC(=O)Nc1cccc(CC(=O)N[C@@H](Cc2coc3ccccc23)B(O)O)c1 [Compound No. 32, [(1R)-1-[[2-(3-acetamidophenyl)acetyl]amino]-2-(benzofuran-3-yl)ethyl]boronic acid] | ++++ (70 ≤ Selectivity < 100) |  | 50 to 500
7 | CO[C@H](C(=O)N[C@@H](Cc1coc2ccccc12)B(O)O)c1ccccc1 [Compound No. 33, [(1R)-2-(benzofuran-3-yl)-1-[[(2S)-2-methoxy-2-phenyl-acetyl]amino]-ethyl]boronic acid] | +++++ (Selectivity ≥ 100) |  | 500 to 5000
8 | CO[C@@H](C(=O)N[C@@H](Cc1coc2ccccc12)B(O)O)c1ccccc1 [Compound No. 34, [(1R)-2-(benzofuran-3-yl)-1-[[(2R)-2-methoxy-2-phenyl-acetyl]amino]-ethyl]boronic acid] | +++++ (Selectivity ≥ 100) | < 50 | 500 to 5000
9 | Cc1ccc(C[C@H](NC(=O)Cc2c(C)cccc2C)B(O)O)c(C)c1 [Compound No. 35, [(1R)-2-(2,4-dimethylphenyl)-1-[[2-(2,6-dimethylphenyl)acetyl]amino]-ethyl]boronic acid] | ++ (10 ≤ Selectivity < 50) | 50 to 500 | 500 to 5000
10 | Cc1ccc(C[C@H](NC(=O)C2(c3ccccc3)CC2)B(O)O)c(C)c1 [Compound No. 36, [(1R)-2-(2,4-dimethylphenyl)-1-[(1-phenylcyclopropanecarbonyl)-amino]ethyl]boronic acid] | + (Selectivity < 10) | 500 to 5000 | > 5000
11 | C[C@H](C(=O)N[C@@H](Cc1coc2ccccc12)B(O)O)c1ccccc1 [Compound No. 37, [(1R)-2-(benzofuran-3-yl)-1-[[(2S)-2-phenylpropanoyl]amino]ethyl]-boronic acid] | +++++ (Selectivity ≥ 100) |  | 500 to 5000
12 | CC(=O)Nc1ccc(CC(=O)N[C@@H](Cc2ccc(C)cc2C)B(O)O)cc1 [Compound No. 38] | ++++ (70 ≤ Selectivity < 100) | < 50 | 500 to 5000
13 | O=C(Cc1ccc(OCCO)cc1)N[C@@H](Cc1coc2ccccc12)B(O)O [Compound No. 39, [(1R)-2-(benzofuran-3-yl)-1-[[2-[4-(2-hydroxyethoxy)phenyl]acetyl]-amino]ethyl]boronic acid] | +++++ (Selectivity ≥ 100) | < 50 | 50 to 500
14 | O=C(Cc1ccc(OCCCO)cc1)N[C@@H](Cc1coc2ccccc12)B(O)O [Compound No. 40, [(1R)-2-(benzofuran-3-yl)-1-[[2-[4-(3-hydroxypropoxy)phenyl]acetyl]-amino]ethyl]boronic acid] | +++++ (Selectivity ≥ 100) | < 50 | 50 to 500
15 | O=C(Cc1cccc(OCCO)c1)N[C@@H](Cc1coc2ccccc12)B(O)O [Compound No. 41, [(1R)-2-(benzofuran-3-yl)-1-[[2-[3-(2-hydroxyethoxy)phenyl]acetyl]-amino]ethyl]boronic acid] | +++++ (Selectivity ≥ 100) | < 50 | 50 to 500
16 | COc1cccc(OC)c1CC(=O)N[C@@H](Cc1ccc(C)cc1C)B(O)O [Compound No. 42, [(1R)-1-[[2-(2,6-dimethoxyphenyl)acetyl]amino]-2-(2,4-dimethylphenyl)ethyl]boronic acid] | ++ (10 ≤ Selectivity < 50) | 50 to 500 | > 5000
17 | Cc1ccc(C[C@H](NC(=O)Cc2ccc(N3CCCC3=O)cc2)B(O)O)c(C)c1 [Compound No. 43, [(1R)-2-(2,4-dimethylphenyl)-1-[[2-[4-(2-oxopyrrolidin-1-yl)phenyl]-acetyl]amino]ethyl]boronic acid] | +++++ (Selectivity ≥ 100) | < 50 | 500 to 5000
18 | Cc1ccc(C[C@H](NC(=O)Cc2ccc(N(C)C)cc2)B(O)O)c(C)c1 [Compound No. 44, [(1R)-1-[[2-(4-dimethylaminophenyl)acetyl]amino]-2-(2,4-dimethylphenyl)ethyl]boronic acid] | +++++ (Selectivity ≥ 100) | < 50 | > 5000
19 | C[C@@H](C(=O)N[C@@H](Cc1coc2ccccc12)B(O)O)c1ccccc1 [Compound No. 45, [(1R)-2-(benzofuran-3-yl)-1-[[(2R)-2-phenylpropanoyl]amino]ethyl]-boronic acid] | +++ (50 ≤ Selectivity < 70) | < 50 | 500 to 5000
20 | Cc1ccc(C[C@H](NC(=O)Cc2ccc(NS(C)(=O)=O)cc2)B(O)O)c(C)c1 [Compound No. 46, [(1R)-2-(2,4-dimethylphenyl)-1-[[2-[4-(methanesulfonamido)phenyl]-acetyl]amino]ethyl]boronic acid] | ++++ (70 ≤ Selectivity < 100) | 50 to 500 | > 5000
21 | COCC(=O)Nc1ccc(CC(=O)N[C@@H](Cc2ccc(C)cc2C)B(O)O)cc1 [Compound No. 47, [(1R)-2-(2,4-dimethylphenyl)-1-[[2-[4-[(2-methoxyacetyl)amino]-phenyl]acetyl]amino]ethyl]boronic acid] | +++++ (Selectivity ≥ 100) | 50 to 500 | > 5000
22 | COCc1ccccc1CC(=O)N[C@@H](Cc1coc2ccccc12)B(O)O [Compound No. 48, [(1R)-2-(benzofuran-3-yl)-1-[[2-[2-(methoxymethyl)phenyl]acetyl]-amino]ethyl]boronic acid] | +++++ (Selectivity ≥ 100) | < 50 | 500 to 5000
23 | COCc1cccc(CC(=O)N[C@@H](Cc2coc3ccccc23)B(O)O)c1 [Compound No. 49, [(1R)-2-(benzofuran-3-yl)-1-[[2-[3-(methoxymethyl)phenyl]acetyl]-amino]ethyl]boronic acid] | +++++ (Selectivity ≥ 100) | < 50 | 50 to 500
24 | O=C(Cc1ccccc1OCCO)N[C@@H](Cc1coc2ccccc12)B(O)O [Compound No. 50, [(1R)-2-(benzofuran-3-yl)-1-[[2-[2-(2-hydroxyethoxy)phenyl]acetyl]-amino]ethyl]boronic acid] | +++ (50 ≤ Selectivity < 70) | < 50 | 500 to 5000
25 | COc1ccc(C(F)(F)C(=O)N[C@@H](Cc2coc3ccccc23)B(O)O)cc1 [Compound No. 51, [(1R)-2-(benzofuran-3-yl)-1-[[2,2-difluoro-2-(4-methoxyphenyl)acetyl]-amino]ethyl]boronic acid] | +++++ (Selectivity ≥ 100) |  | 500 to 5000
26 | COc1cc(CC(=O)N[C@@H](Cc2coc3ccccc23)B(O)O)cc(OC)c1OC [Compound No. 52, [(1R)-2-(benzofuran-3-yl)-1-[[2-(3,4,5-trimethoxyphenyl)acetyl]amino]-ethyl]boronic acid] | ++ (10 ≤ Selectivity < 50) | < 50 | 50 to 500
27 | Cc1ccc(C[C@H](NC(=O)Cc2ccc(NC(=O)C(F)(F)F)cc2)B(O)O)c(C)c1 [Compound No. 53, [(1R)-2-(2,4-dimethylphenyl)-1-[[2-[4-[(2,2,2-trifluoroacetyl)amino]-phenyl]acetyl]amino]ethyl]boronic acid] | ++ (10 ≤ Selectivity < 50) | < 50 | 500 to 5000
